From patent US12414955B2 (priority 2020, dated 2025) come the findings set out here.

As a reminder, the pIC50 is the IC50 on a negative log10 scale, so that one unit is a factor of ten.

In one data set the test system is SARS CoV-2. The data set can be described thus: SARS CoV-2 cytopathic effect (CPE) assay in Vero E6 host cells. Format: cell-based, USA_WA1/2020 SARS CoV-2.
The nature of data set [1]: in vitro. Conditions: African green monkey.
The test system of another data set is SARS-CoV-2. The data set can be described thus: microbe, parasite or virus in culture. In kind it is cell-based. Conditions: Severe acute respiratory syndrome coronavirus 2, A549, 48 h; read-out: IC50 for inhibition of SARS CoV-2 mediated cell killing.
The nature of data set [2]: in vitro. Conditions: African green monkey. This is another data set of the same source.
A further data set relates to SARS CoV-1. The data set can be described thus: organism not typed. In kind it is cell-based, Toronto 2 SARS CoV-1. Conditions: for average plate ZIP synergy score / maximum ZIP synergy score / concentrations at which synergy was realized: SARS CoV-1 CPE assay.
[3] abbreviates: Compound 1 in combination with hydroxychloroquine (HCQ).
Setting [4] is: Compound 1 in combination with remdesivir.
Setting [5] is: combination of Compound 1 and hydroxychloroquine (HCQ).
The mark [6] stands for this setting: combination of Compound 1 and remdesivir.

pIC50: −log10 of the molar value. Several values for one entry are separate records, joined by “and”; a condition that tells them apart may be missing. Equal values may be shown once.

In the case of `C[C@@H]1COCCN1c1cc(N2CCCC[C@@H]2C(F)(F)F)[nH]c(=O)c1` [Compound 1], the “average plate ZIP synergy score” value with SARS CoV-2 is 5.523 and 8.345; with SARS CoV-1 (setting [3]) it was 13.413; with SARS CoV-1 (setting [4]), 8.304. Also, the “maximum ZIP synergy score” value with SARS CoV-2 was 32.8 and 40.8; with SARS CoV-1 (setting [3]), 37.77; in the data set with SARS CoV-1 (setting [4]), 33.66. Also, the CC50 in “in vitro [1]” and in “in vitro [2]” was over 30 µM throughout. Moreover, the pIC50 was 6.97 with SARS-CoV-2 and 6.19 in the data set with SARS CoV-1 (Vero C1008, 72 h, read-out: IC50 for inhibition of SARS CoV-1 mediated cell killing). For the same molecule, the “concentrations at which synergy was realized” value (from here on “concentrations”) in the data set with SARS CoV-1 (setting [5]) and in the data set on SARS CoV-1 (setting [6]) was at most 1.9 µM in each case.

On to `C[C@@H]1COCCN1c1cc(N2CCCC[C@@H]2c2ccccc2)[nH]c(=O)c1` [Compound 2], for which the CC50 in the data set “in vitro [1]” and in the data set “in vitro [2]” was over 30 µM throughout. Besides, the pIC50 with SARS-CoV-2 was 5.69.

On to `C[C@@H]1COCCN1c1cc(N2CCC[C@@H]2C(F)(F)F)[nH]c(=O)c1` [Compound 3], for which the CC50 in “in vitro [1]” and in the data set “in vitro [2]” was over 30 µM throughout. In addition, in the data set with SARS-CoV-2, the pIC50 was under 4.52.

For `C[C@@H]1COCCN1c1cc(N2CCOC[C@H]2C(F)(F)F)[nH]c(=O)c1` [Compound 4], the CC50 in “in vitro [1]” and in “in vitro [2]” was over 30 µM each time. Further, the pIC50 in the data set with SARS-CoV-2 is 6.28.

Regarding `C[C@@H]1COCCN1c1cc(N2CCOCC23CCC3)[nH]c(=O)c1` [Compound 5], the CC50 in “in vitro [1]” and in the data set “in vitro [2]” was over 10 µM in each case. For the same molecule, the pIC50 in the data set on SARS-CoV-2 is 5.11.

For the molecule `CCN(CCO)CCCC(C)Nc1ccnc2cc(Cl)ccc12` (stereo not drawn) [HCQ, hydroxychloroquine, reference compound], the “concentrations” value in the data set with SARS CoV-1 (setting [5]) is over 0.1 µM.

For `CCC(CC)COC(=O)[C@H](C)N[P@](=O)(OC[C@H]1O[C@@](C#N)(c2ccc3c(N)ncnn23)[C@H](O)[C@@H]1O)Oc1ccccc1` [Remdesivir, remdesivir, reference compound], the “concentrations” value is “above 0.5 μM” in the data set on SARS CoV-2 and over 1.9 µM in the data set on SARS CoV-1 (setting [6]).
